{"source": "patent US20180251847A1", "about": "“METHOD OF PREDICTING THE TUMOR RESPONSE TO DNA METHYLATION INHIBITORS AND ALTERNATIVE THERAPEUTIC REGIMEN FOR OVERCOMING RESISTANCE” (PALACKY UNIVERSITY, OLOMOUC, priority 2014, published 2018)", "key": {"HL-60": {"system": "HL-60", "experiment": "MTT based cell survival assay, parental HL-60", "conditions": "Homo sapiens, HL-60, read-out: Mean IC50", "method": "(§1) To study the mechanism of resistance towards DNA methylation inhibitor, 2′-deoxy-5-azacytidine, we used the human colorectal cancer cell line (HCT116), human promyelocytic leukemia cells (HL-60), and human breast adenocarcinoma cell line (MCF-7) obtained from American Type Culture Collection (Manassas, Va.). The cell lines were cultured in complete growth media (Sigma-Aldrich, St. Louis, Mo.), supplemented with fetal bovine serum (FBS, PAN-Biotech GmbH, Aidenbach, Germany), 100 U/mL penicillin (Biotika, Slovenská L'upča, Slovak Republic) and 50 μg/mL streptomycin (Sigma-Aldrich), and the cultures were maintained at 37° C. and 5% CO2, in a humidified incubator. […]\n(§2) To determine the IC50 of the epigenetic drugs (Tocris Bioscience, Bristol, United Kingdom), four independent experiments were performed using triplicate wells of 96 well plates. […] The wells with medium alone were included alongside as blank for absorbance readings. […]\n(§3) Cross resistance was determined as the fold increase, whereas, the sensitivity was determined as the fold decrease in the IC50 of the drugs for the resistant cell lines compared to their genetically identical drug sensitive counterpart."}, "R1.1 (HCT116-RDAC)": {"system": "R1.1 (HCT116-RDAC)", "experiment": "MTT based cell survival assay, DAC resistant HCT116 clone R1.1", "set-up": "species or system human", "method": "(§4) The DAC resistant HCT116 cell lines were developed using two methods.\n(§5) The method is primarily based on reduction of yellow colored tetrazolium salt, 3-(4,5-dimethylthiazol-2-yl)-2,5-diphenyltetrazolium bromide (MTT) to insoluble purple colored formazan crystals by NAD(P)H-dependent oxidoreductase enzymes in mitochondria of the viable cell.\n(§6) Cells in 80 μL of medium were plated in each of the experimental and the control wells, followed by addition of 20 μL medium with five-fold drug concentration to experimental wells. The wells with medium alone were included alongside as blank for absorbance readings. After 72 h of drug treatment, 10 μL MTT (Sigma-Aldrich) prepared in 1×PBS (5 mg/mL) was added to all wells including blank and control, and incubated until the purple formazan crystals were visible after which 100 μL of detergent (10% SDS, pH: 5.5) was added and the plates were incubated overnight to solubilize the formazan and the cellular material.\nas §3"}, "MCF-7": {"system": "MCF-7", "experiment": "MTT based cell survival assay, parental MCF-7", "conditions": "Homo sapiens, MCF7, read-out: Mean IC50", "method": "as §1, §2, §3"}, "R1.2 (HCT116-RDAC)": {"system": "R1.2 (HCT116-RDAC)", "experiment": "MTT based cell survival assay, DAC resistant HCT116 clone R1.2", "set-up": "species or system human", "method": "as §4, §5, §6, §3"}, "HCT116 xenografts": {"system": "HCT116 xenografts", "experiment": "Anti-tumor activity in xenografted mouse model, parental HCT116", "assay_type": "in vivo, SCID mice", "conditions": "parental HCT116 xenograft, DAC 2.5 mg/kg i.p., 10 doses, day 0-21", "from_the_text": "For in vivo validation of HCT116 resistance towards DAC and sensitivity of DAC resistant tumors to (+)-JQ1 treatment, we studied the anti-tumor activity of DAC and (+)-JQ1 in HCT116 parental versus a resistant cell clone R1.4 (HCT116_RDAC). Xenografts were established in 11-12 weeks-old female SCID mice, inoculated with 5×10^6 cells, s.c. on both sides of the chest. After 2 weeks, tumors were palpable (average tumor volume 20 mm^3) and mice were assigned into four groups (8 mice/group). Group I: vehicle control for DAC (10:90, DMSO: PBS) and Group II: DAC, 2.5 mg/kg by i.p. injection once a day for 14 days (5 days on, 2 days off), total 10 doses. […] Body weights of the animals were measured daily and tumor volume data were collected twice a week. […]\nFor determining the anti-tumor activity of the drugs, DAC and (+)-JQ1, tumor volume data for each group were transformed into relative tumor volumes followed by calculation of treatment to control ratio (T/C ratio) for each time point. […] Statistical significance of the data was determined by calculating bootstrap p-value, n=10000, one-sided test of H0: T/C ratio=1, H1: T/C ratio <1 (Jianrong Wu., Journal of Biopharmaceutical Statistics 2010; 20, 954-64). After day 21, statistical significance cannot be measured accurately due to decreased survival of animals in control group. […]"}, "[1]": {"conditions": "Homo sapiens, HCT-116, 72 h, read-out: Mean IC50"}}}
{"smiles": "Nc1ncn([C@H]2C[C@H](O)[C@@H](CO)O2)c(=O)n1", "note": "[DAC, 2′-deoxy-5-azacytidine]", "values": [{"measurement": "IC50", "setting": "HL-60", "result": 78, "unit": "nM"}, {"measurement": "IC50", "setting": "R1.1 (HCT116-RDAC); [1]", "result": "> 100000", "unit": "nM"}, {"measurement": "fold change (resistance index)", "setting": "R1.1 (HCT116-RDAC); IC50 R1.1 / IC50 HCT116", "result": "(>357) fold"}, {"measurement": "IC50", "setting": "MCF-7", "result": 238, "unit": "nM"}, {"measurement": "IC50", "setting": "R1.2 (HCT116-RDAC); [1]", "result": "> 100000", "unit": "nM"}, {"measurement": "fold change (resistance index)", "setting": "R1.2 (HCT116-RDAC); IC50 R1.2 / IC50 HCT116", "result": "(>357) fold"}, {"measurement": "fold effect (anti-tumor activity, aAUC of T/C ratio)", "setting": "HCT116 xenografts", "result": 2.9}]}
